Each compound was assayed against T1, HP1α-chromatin condensates (Homo sapiens, UniProt P45973) (assay: HP1α-chromatin condensate in vitro droplet assay / screening (fluorescence imaging)). Details: FIG. 6; interaction partner added to HP1α-chromatin condensates.
T1 construct: 6x-His (cleaved yes); made in house; host or cells: E. coli Rosetta BL21 (DE3)
T1 sequence (P45973 whole entry): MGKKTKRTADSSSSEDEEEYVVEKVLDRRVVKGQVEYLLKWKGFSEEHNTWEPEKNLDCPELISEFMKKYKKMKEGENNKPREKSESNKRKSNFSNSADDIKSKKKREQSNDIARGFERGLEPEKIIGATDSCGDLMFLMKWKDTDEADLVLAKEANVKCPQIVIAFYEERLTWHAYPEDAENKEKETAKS
Type: biochemical
Method: HP1α was diluted to the desired 2× concentration. HP1αKCK was added to HP1α at a ratio of 1:500 HP1α: HP1αKCK for evident fluorescent signal. HP1α-chromatin droplets were formed at 40 nM nucleosome array concentration in 20 mM HEPES pH 7.5, 0.1 mM EDTA and 2× HP1α-HP1αKCK in 20 mM HEPES pH 7.2, 150 mM KCl 1 mM DTT. 10 μL of 80 nM nucleosome arrays (2×) was mixed with 10 μl 2× HP1α-HP1αKCK and incubated at room temperature for 20 minutes before transferring to a glass bottom 384 well plate for imaging.
384 well glass bottom plates (Greiner Sensoplate 781892) were prepared for sample examination as follows: The wells were rinsed three times with 100 μl water, incubated with 100 μl of 2% Hellmanex for 30 mins-1 hour, rinsed with water three times again, incubated with 100 μl of 0.5M NaOH for 30 mins, rinsed with water three times, and then 70 μl of 20 mg/ml mPEG-silane dissolved in 95% EtOH was added to coat the wells. The plate was covered with foil and left overnight at 4° C.
After the overnight, the wells were rinsed with 95% EtOH five times, followed by incubation with 100 mg/ml BSA for 2 hours. Then, the wells were rinsed three times with water and three times with 1× phasing buffer afterwards (20 mM HEPES pH 7.2, 75 mM KCl, 0.05 mM EDTA, 0.5 mM DTT). After, the condensates are added to each well.
To conduct droplet assays at scale, arrays assembled with 540 μg fluorescently labeled array DNA and 1.3 mg of fluorescently labeled HP1α were needed for one 384 well plate. 384 well plates were washed and coated in mPEG-silane in bulk using the Biotek EL406 washer dispenser. HP1α-array droplets were screened against a Bioactive compound library (Selleck Chemicals). These compounds were diluted in 1× phasing buffer (20 mM HEPES pH 7.2, 75 mM KCl, 0.05 mM EDTA, 0.5 mM DTT), and added to the wells for a final concentration of 10 μM in the reaction. The droplets and compounds were dispensed in the 384 wells using the Biomek-FX.
After 3-4 hours of settling to the bottom of the plate, the condensates were imaged on the IN Cell Analyzer 6500HS equipped with a Nikon Plan Apo 40×/0.95NA objective and sCMOS camera. Five field of views per channel were taken per well. Image analysis was conducted using a custom pipeline written in Python using NumPy and SciPy SciKit libraries. Classical image segmentation and quantification techniques were implemented to identify droplets and characterize their geometry, fluorescent intensity, and consequently the effectiveness of the small molecules on the droplets.
In the case of “HP1β: heterochromatin protein, biologically relevant interaction partner of HP1α-chromatin condensates”, the “Effect of biologically relevant interaction partners on HP1α-chromatin condensate formation” value is reported as “dissolves condensates, making them disappear or smaller”.

Same assay, conditions: FIG. 7; Bioactive compound library (Selleck Chemicals), final concentration of 10 μM; H3K9me3 nucleosome arrays
With CN(C)CCN1C(=O)c2cccc3cc(N)cc(c23)C1=O [Amonifide] the “Effect of bioactive small molecules on HP1α-chromatin condensates” value (from here on “Effect of bioactive small molecules”) was “dissolve condensates”. With C#Cc1cccc(Nc2ncnc3cc(OCCOC)c(OCCOC)cc23)c1 [Erlotinib] the “Effect of bioactive small molecules” value was “enhance condensate formation”. With CS(=O)(=O)CCNCc1ccc(-c2ccc3ncnc(Nc4ccc(OCc5cccc(F)c5)c(Cl)c4)c3c2)o1 [Lapatinib ditosylate] the “Effect of bioactive small molecules” value was “mild or no effect”. With CS(=O)(=O)c1ccc(C(=O)Nc2ccc(Cl)c(-c3ccccn3)c2)c(Cl)c1 [Vismodegib] the “Effect of bioactive small molecules” value was “enhance condensate formation”. CC(c1cc2ccccc2s1)N(O)C(N)=O (stereo not drawn) [Zileuton] was tested, and the “Effect of bioactive small molecules” value was “dissolve condensates”.
